From patent publication US8754115B2, “Fungicidal pyrazoles” (E I du Pont de Nemours and Company, priority 2010, dated 2014)
Marks after values point to notes of the source that are not given here.

Legend:
Assay type in all cases: in vivo
[1] = test system: Septoria nodorum; assay: Test C: preventive spray on wheat seedlings, visual disease rating (Septoria glume blotch)
How it was run: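 Wheat seedlings were sprayed to run-off with 200 ppm suspension (40 ppm where marked; 200 ppm ≈ 800 g/ha) in acetone/water with 250 ppm Trem 014, then inoculated next day with Septoria nodorum spores. Incubation was 48 h saturated at 24 °C, then 6 days at 20 °C; visual rating 0–100% disease control versus controls.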

[2] = test system: Septoria tritici; assay: Test D: preventive spray on wheat seedlings, visual disease rating (wheat leaf blotch)
How it was run: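 Wheat seedlings were sprayed to run-off with a 200 ppm suspension (equal to 800 g/ha), or 40 ppm where marked with an asterisk, and inoculated with Septoria tritici spores the next day. Plants were kept at 24 °C in saturated air for 48 h, then at 20 °C for 19 days. Disease control was rated visually from 0 to 100 relative to controls.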

[3] = test system: Botrytis cinerea; assay: Test A: preventive spray on tomato seedlings, visual disease rating (tomato Botrytis)
How it was run: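 Tomato seedlings sprayed to run-off with 200 ppm suspension (800 g/ha; asterisk marks 40 ppm), inoculated next day with Botrytis cinerea spores, held 48 h saturated at 20 °C then 3 days at 24 °C. Visual rating: 100 = full disease control, 0 = none, relative to controls.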

[4] = test system: Puccinia recondite f. sp. tritici; assay: Test E2: preventive spray on wheat seedlings, visual disease rating (wheat leaf rust)
How it was run: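 Test suspension (acetone 3% of volume, acetone/water 50/50, 250 ppm Trem 014), 200 ppm unless starred (40 ppm), sprayed to run-off on wheat seedlings; inoculated next day with P. recondita spores. 24 h saturated atmosphere at 20 °C, then 7 days at 20 °C; visual rating, 100 = full control vs untreated.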

[5] = test system: Alternaria solani; assay: Test B: preventive spray on tomato seedlings, visual disease rating (tomato early blight)
Text: (§1) General protocol for preparing test suspensions for Tests A-F: the test compounds were first dissolved in acetone in an amount equal to 3% of the final volume and then suspended at the desired concentration (in ppm) in acetone and purified water (50/50 mix by volume) containing 250 ppm of the surfactant Trem® 014 (polyhydric alcohol esters). The resulting test suspensions were then used in Tests A-F. Spraying a 200 ppm test suspension to the point of run-off on the test plants was the equivalent of a rate of 800 g/ha. Unless otherwise indicated, the rating values indicate a 200 ppm test suspension was used. (An asterisk “*” next to the rating value indicates a 40 ppm test suspension was used.)
The test suspension was sprayed to the point of run-off on tomato seedlings. The following day the seedlings were inoculated with a spore suspension of Alternaria solani (the causal agent of tomato early blight) and incubated in a saturated atmosphere at 27° C. for 48 h, and then moved to a growth chamber at 20° C. for 5 days, after which time visual disease ratings were made.
(§2) Results for Tests A-F are given in Table A. In the Table, a rating of 100 indicates 100% disease control and a rating of 0 indicates no disease control (relative to the controls). A dash (-) indicates no test results. An asterisk “*” next to the rating value indicates a 40 ppm test suspension was used.

[6] = test system: Puccinia recondite f. sp. tritici; assay: Test E1: curative spray on wheat seedlings after inoculation, visual disease rating (wheat leaf rust)
Text: as §1
Wheat seedlings were inoculated with a spore suspension of Puccinia recondite f. sp. tritici (the causal agent of wheat leaf rust) and incubated in a saturated atmosphere at 20° C. for 24 h, and then moved to a growth chamber at 20° C. for 2 days. After 2 days, the test suspension was sprayed to the point of run-off on the wheat seedlings, and then the seedlings were moved back to the growth chamber at 20° C. for 6 days. Upon removal, visual disease ratings were made.
as §2

[7] = test system: Blumeria graminis f. sp. tritici; assay: Test F: preventive spray on wheat seedlings, visual disease rating (wheat powdery mildew)
How it was run: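 Compound in acetone/water (50/50) with 250 ppm surfactant, sprayed to run-off on wheat seedlings at 200 ppm (≈800 g/ha) or, where marked, 40 ppm. Seedlings dusted with spores the next day, kept 8 days at 20° C., then rated visually as % disease control versus untreated plants.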

[8] = no asterisk: standard test suspension, not 40 ppm
[9] = no asterisk: standard test suspension, not 40 ppm, 100 = 100% disease control, 0 = none
[10] = asterisk: 40 ppm test suspension

| Molecule | Test C rating (% disease control) [1, 8] | Test D rating (% disease control) [2, 8] | Test A rating (% disease control) [3, 9] | Test E2 rating (% disease control) [4, 8] | Test B rating (% disease control) [5, 8] | Test E1 rating (% disease control) [6, 8] | Test F rating (% disease control) [7, 8] | further results |
| --- | --- | --- | --- | --- | --- | --- | --- | --- |
| Cc1nn(C)c(-c2c(F)cccc2Cl)c1C(O)c1c(Cl)cccc1Cl (stereo not drawn) [compound 85] | 0% | 100% | 97% | 100% | 84% | 9% | 50% |  |
| Cc1nn(C)c(-c2c(F)cccc2F)c1C(O)c1ccc(F)cc1Cl (single isomer, unassigned) [compound 86] |  | 100% | 99% | 100% |  |  | 100% | Test C rating (% disease control) [1, 10]: 99* %; Test B rating (% disease control) [5, 10]: 100* %; Test E1 rating (% disease control) [6, 10]: 99* % |
| α-(2,4-difluorophenyl)-5-(2,6-difluorophenyl)-1,3-dimethyl-1H-pyrazole-4-methanol [Compound 14] | 0% | 100% | 98% | 98% | 0% | 75% | 97% |  |
| Cc1nn(C)c(-c2ccccc2Br)c1C(O)c1ccc(F)cc1Cl (single isomer, unassigned) [compound 80] | 69% | 100% | 99% | 99% | 97% | 99% | 99% |  |
| Cc1nn(C)c(-c2c(Cl)cccc2Cl)c1C(O)c1ccc(F)cc1Cl (stereo not drawn) [compound 69] | 96% | 100% | 99% | 99% | 100% | 0% | 97% |  |
| Cc1nn(C)c(-c2c(F)cccc2Cl)c1C(O)c1c(Cl)cc(Cl)cc1Cl (stereo not drawn) [compound 55] | 78% | 100% | 99% | 100% | 97% | 99% | 95% |  |
| 4-[(4-chlorophenyl)thio]-5-(2,6-difluorophenyl)-1,3-dimethyl-1H-pyrazole [Compound 56] | 0% | 100% | 100% | 99% | 59% | 0% | 100% |  |
| Cc1nn(C)c(-c2ccc(F)cc2Br)c1C(O)c1c(F)cc(F)cc1F (stereo not drawn) [compound 82] | 92% | 99% | 99% | 100% | 100% | 27% | 100% |  |
| 5-(2,6-difluorophenyl)-α-(4-fluoro-2-methylphenyl)-3-methoxy-1-methyl-1H-pyrazole-4-methanol [Compound 157] | 0% | 100% | 100% | 89% | 93% | 65% | 98% |  |
| Cc1nn(C)c(-c2ccc(F)cc2Cl)c1Nc1ccc(F)cc1Br [compound 58] |  |  |  |  |  |  |  | Test C rating (% disease control) [1, 10]: 0* %; Test D rating (% disease control) [2, 10]: 100* %; Test A rating (% disease control) [3, 10]: 100* %; Test E2 rating (% disease control) [4, 10]: 98* %; Test B rating (% disease control) [5, 10]: 8* %; Test E1 rating (% disease control) [6, 10]: 0* %; Test F rating (% disease control) [7, 10]: 97* % |
| Cc1nn(C)c(-c2ccc(F)cc2Cl)c1Nc1ccc(F)cc1Cl [compound 42] | 0% | 100% | 99% | 99% | 99% | 32% | 100% |  |
| α-(2,4-difluorophenyl)-5-(2,4-difluorophenyl)-1,3-dimethyl-1H-pyrazole-4-methanol [Compound 72] | 0% | 99% | 100% | 40% | 0% | 0% | 99% |  |
| Cc1nn(C)c(-c2c(F)cccc2F)c1Nc1ccc(F)cc1F [compound 64] | 0% | 48% | 99% | 55% | 0% | 0% | 97% |  |
| Cn1nc(C#N)c(C(O)c2ccc(F)cc2Cl)c1-c1c(F)cccc1F (stereo not drawn) [Compound 53, 4-[(2-chloro-4-fluorophenyl)hydroxymethyl]-5-(2,6-difluorophenyl)-1-methyl-1H-pyrazole-3-carbonitrile] |  |  |  |  |  |  |  | pest or weed control at 40 ppm ([1]; Parastagonospora nodorum, 192 h, asterisk: 40 ppm test suspension): 0%; pest or weed control at 40 ppm ([2]; Zymoseptoria tritici, 504 h, asterisk: 40 ppm test suspension): 100%; pest or weed control at 40 ppm ([3]; Botrytis cinerea, 120 h, asterisk: 40 ppm test suspension): 93%; pest or weed control at 40 ppm ([4]; 192 h, asterisk: 40 ppm test suspension): 93%; pest or weed control at 40 ppm ([5]; Alternaria solani, 168 h, asterisk: 40 ppm test suspension): 99%; pest or weed control at 40 ppm ([6]; 144 h, asterisk: 40 ppm test suspension): 0%; pest or weed control at 40 ppm ([7]; Blumeria graminis, 192 h, asterisk: 40 ppm test suspension): 43% |
| Cc1nn(C)c(-c2c(F)cc(F)cc2F)c1C(O)c1ccc(F)cc1F (stereo not drawn) [compound 66] | 95% | 100% | 100% | 100% | 100% | 55% | 99% |  |
